Reference: US7488712B2, “Histone deacetylase inhibitors and methods for producing the same” (Kyushu Institute of Technology, priority 2002, dated 2009)

Key:
mouse HDAC6 = biological target: T1, mouse HDAC6 (Mus musculus, UniProt Q9Z2V5); assay: In vitro HDAC inhibition activity, [3H]-acetylated histone substrate, HDAC6; type: biochemical; details: Table 3
T1 construct: HA; made in house; host or cells: 293T cells (transient transfection, anti-HA immunoprecipitation, HA peptide elution)
T1 sequence (Q9Z2V5 1-1149): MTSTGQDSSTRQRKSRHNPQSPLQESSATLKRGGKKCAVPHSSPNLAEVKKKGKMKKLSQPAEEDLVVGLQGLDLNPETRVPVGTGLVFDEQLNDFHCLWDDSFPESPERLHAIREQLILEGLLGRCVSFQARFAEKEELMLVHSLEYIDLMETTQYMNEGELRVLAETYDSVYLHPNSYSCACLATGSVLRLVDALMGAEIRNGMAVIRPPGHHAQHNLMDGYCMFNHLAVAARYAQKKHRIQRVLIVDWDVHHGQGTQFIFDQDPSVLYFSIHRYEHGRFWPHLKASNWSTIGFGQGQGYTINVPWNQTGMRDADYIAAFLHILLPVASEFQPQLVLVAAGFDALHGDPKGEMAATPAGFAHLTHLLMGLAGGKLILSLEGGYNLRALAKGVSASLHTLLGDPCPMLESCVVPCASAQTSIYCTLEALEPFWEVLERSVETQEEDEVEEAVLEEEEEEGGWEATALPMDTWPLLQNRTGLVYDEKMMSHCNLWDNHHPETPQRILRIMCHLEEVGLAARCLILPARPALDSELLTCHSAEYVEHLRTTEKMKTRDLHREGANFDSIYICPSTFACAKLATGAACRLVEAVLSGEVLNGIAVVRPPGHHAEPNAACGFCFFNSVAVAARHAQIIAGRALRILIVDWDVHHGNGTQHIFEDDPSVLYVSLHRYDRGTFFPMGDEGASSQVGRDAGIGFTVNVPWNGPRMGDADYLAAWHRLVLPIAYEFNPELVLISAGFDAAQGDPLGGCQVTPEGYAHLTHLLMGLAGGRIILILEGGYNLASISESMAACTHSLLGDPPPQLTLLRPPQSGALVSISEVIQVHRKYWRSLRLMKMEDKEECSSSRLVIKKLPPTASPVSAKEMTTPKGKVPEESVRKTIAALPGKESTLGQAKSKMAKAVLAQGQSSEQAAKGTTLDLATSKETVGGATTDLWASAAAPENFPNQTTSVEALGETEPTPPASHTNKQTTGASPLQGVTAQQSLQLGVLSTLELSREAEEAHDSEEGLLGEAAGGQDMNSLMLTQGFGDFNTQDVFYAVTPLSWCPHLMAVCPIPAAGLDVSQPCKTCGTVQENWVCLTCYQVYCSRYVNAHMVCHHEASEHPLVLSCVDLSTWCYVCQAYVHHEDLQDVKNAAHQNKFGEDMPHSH

[1] = test system: human wild-type p21 promoter; assay: p21 promoter-inducing activity (luciferase) in MFLL-9 cells; type: cell-based
[2] = Stability in serum (FCS), read out by p21 promoter inducing activity; type: in vitro ADME; details: FCS, 37° C.; activity at incubation time zero taken as 100%; FIG. 7
Experimental: The stability of SCOP 152, SCOP 304, and SCOP 402 in serum was evaluated by the method shown below: 1 μl of 10 mM SCOP 152, SCOP 304, and SCOP 402 was added to 99 μl FCS, and incubated at 37° C. Each hour, NaCl in a sufficient amount for saturation and 1 ml of ethyl acetate were added to each mixture. After extraction, from 800 μl of the ethyl acetate phase, the ethyl acetate was distilled off, and then 100 μl of DMSO was added to the residue. The resulting solution was further diluted ten times with DMSO and used to measure p21 promoter inducing activity. Activity at incubation time zero was taken as 100%, and activities were compared (FIG. 7).

CC[C@H](C)[C@@H]1NC(=O)[C@@H](Cc2ccc(OC)cc2)NC(=O)[C@H](CCCCCSSc2ccncc2)NC(=O)[C@H]2CCCN2C1=O [SCOP 402, cyclo(-L-Am7(S4Py)-D-Tyr(Me)-L-Ile-D-Pro-)]
IC50 (mouse HDAC6; hybrid with DTT (/DTT)): 2010 nM | IC50 (mouse HDAC6; hybrid, without DTT): 1610 nM | EC50 ([1]; Table 3, hybrid with DTT (/DTT)): 470 nM | EC50 ([1]; Table 3, hybrid, without DTT): 1310 nM | Retention of activity in serum [2]: stably retain activity in serum for longer than SCOP 152
